Reference: patent publication US9918931B2, “Method for providing a customized skin care product to a customer” (L'OREAL, priority 2016, dated 2018)

Experiment: Solubility of active ingredients in base oil composition
Type: physicochemical
Settings: active ingredient in base oil composition; loading without asterisk

O=C(O)c1ccccc1O [Salicylic Acid, reference compound]
Loading (wt %), soluble (not marked *): 3%
